Laboratory results reported in paper PMC6117411, “De novo Transcriptome Characterization of Rhodomyrtus tomentosa Leaves and Identification of Genes Involved in α/β-Pinene and β-Caryophyllene Biosynthesis” (Frontiers in Plant Science, 2018).

Tests used:
Type in all cases: biochemical
Settings in all cases: 25 mM HEPES pH 7.0, 10 mM MgCl2, 5 mM DTT, 10 mM substrate, 30 C, 30 min
RtTPS2 = molecular target: T1, RtTPS2 (Rhodomyrtus tomentosa, UniProt A0A385J6Y6); assay: product formation by GC-MS and chiral GC-FID
T1 construct: gene TPS2; TPS-b subfamily
T1 sequence (A0A385J6Y6 1-599): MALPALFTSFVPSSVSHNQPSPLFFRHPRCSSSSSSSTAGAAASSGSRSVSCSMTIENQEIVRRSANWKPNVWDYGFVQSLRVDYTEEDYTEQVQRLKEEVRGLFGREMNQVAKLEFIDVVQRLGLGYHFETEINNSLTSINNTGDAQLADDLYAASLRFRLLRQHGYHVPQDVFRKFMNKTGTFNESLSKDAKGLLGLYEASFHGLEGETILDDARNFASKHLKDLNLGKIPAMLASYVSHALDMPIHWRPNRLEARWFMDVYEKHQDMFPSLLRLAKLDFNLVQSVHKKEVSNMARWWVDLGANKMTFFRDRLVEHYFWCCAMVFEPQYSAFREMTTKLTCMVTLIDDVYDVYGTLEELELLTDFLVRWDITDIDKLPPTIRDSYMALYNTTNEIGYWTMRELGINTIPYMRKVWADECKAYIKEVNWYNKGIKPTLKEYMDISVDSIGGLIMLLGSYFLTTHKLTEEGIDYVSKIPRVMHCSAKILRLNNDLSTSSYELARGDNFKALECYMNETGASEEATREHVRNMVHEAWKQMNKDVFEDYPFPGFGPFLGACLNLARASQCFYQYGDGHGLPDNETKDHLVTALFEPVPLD

RtTPS1 [1] = molecular target: T2, RtTPS1 (Rhodomyrtus tomentosa, UniProt A0A385J6X8); assay: product formation by GC-MS and chiral GC-FID
T2 construct: gene TPS1; 38 residues upstream of RRX8W motif; TPS-b subfamily
T2 sequence (A0A385J6X8 1-581): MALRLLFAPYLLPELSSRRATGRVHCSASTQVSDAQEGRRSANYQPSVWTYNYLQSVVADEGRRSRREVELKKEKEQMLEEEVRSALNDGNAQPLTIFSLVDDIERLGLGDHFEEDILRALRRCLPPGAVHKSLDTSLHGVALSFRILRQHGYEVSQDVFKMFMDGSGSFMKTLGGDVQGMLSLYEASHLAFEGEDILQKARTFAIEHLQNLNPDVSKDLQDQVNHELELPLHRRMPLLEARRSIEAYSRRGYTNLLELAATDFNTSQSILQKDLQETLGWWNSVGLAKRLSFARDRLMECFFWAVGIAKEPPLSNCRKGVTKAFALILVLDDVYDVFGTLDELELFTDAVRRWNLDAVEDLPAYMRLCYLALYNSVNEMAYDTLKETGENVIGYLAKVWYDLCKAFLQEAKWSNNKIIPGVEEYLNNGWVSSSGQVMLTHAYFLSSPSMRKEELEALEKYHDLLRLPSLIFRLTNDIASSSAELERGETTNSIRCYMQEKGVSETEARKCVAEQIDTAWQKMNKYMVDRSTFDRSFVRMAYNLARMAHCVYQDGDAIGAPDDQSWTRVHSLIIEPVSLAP

RtTPS3 [2] = molecular target: T3, RtTPS3 (Rhodomyrtus tomentosa, UniProt A0A385J6Y9); assay: product formation by GC-MS and chiral GC-FID
T3 construct: gene TPS3; 52 residues upstream of RRX8W motif; TPS-a subfamily
T3 sequence (A0A385J6Y9 1-597): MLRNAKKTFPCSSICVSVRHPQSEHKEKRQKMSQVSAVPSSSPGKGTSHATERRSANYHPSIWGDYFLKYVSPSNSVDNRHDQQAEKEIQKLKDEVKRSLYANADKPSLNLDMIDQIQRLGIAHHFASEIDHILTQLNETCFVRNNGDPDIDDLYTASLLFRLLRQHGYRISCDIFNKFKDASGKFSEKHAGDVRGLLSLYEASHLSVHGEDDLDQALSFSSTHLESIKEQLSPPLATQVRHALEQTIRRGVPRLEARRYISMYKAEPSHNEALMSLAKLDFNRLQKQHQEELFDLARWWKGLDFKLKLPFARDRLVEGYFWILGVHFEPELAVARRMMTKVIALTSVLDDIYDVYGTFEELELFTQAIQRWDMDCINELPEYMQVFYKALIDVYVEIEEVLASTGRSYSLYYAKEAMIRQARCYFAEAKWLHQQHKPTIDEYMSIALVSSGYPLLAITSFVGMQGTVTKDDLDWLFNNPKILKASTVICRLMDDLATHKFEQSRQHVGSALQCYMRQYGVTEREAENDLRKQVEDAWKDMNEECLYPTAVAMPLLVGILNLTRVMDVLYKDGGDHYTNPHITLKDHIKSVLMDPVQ

RtTPS4 = molecular target: T4, RtTPS4 (Rhodomyrtus tomentosa, UniProt A0A385J6Y5); assay: product formation by GC-MS and chiral GC-FID
T4 construct: gene TPS4; 48 residues upstream of RRX8W motif; TPS-a subfamily
T4 sequence (A0A385J6Y5 1-594): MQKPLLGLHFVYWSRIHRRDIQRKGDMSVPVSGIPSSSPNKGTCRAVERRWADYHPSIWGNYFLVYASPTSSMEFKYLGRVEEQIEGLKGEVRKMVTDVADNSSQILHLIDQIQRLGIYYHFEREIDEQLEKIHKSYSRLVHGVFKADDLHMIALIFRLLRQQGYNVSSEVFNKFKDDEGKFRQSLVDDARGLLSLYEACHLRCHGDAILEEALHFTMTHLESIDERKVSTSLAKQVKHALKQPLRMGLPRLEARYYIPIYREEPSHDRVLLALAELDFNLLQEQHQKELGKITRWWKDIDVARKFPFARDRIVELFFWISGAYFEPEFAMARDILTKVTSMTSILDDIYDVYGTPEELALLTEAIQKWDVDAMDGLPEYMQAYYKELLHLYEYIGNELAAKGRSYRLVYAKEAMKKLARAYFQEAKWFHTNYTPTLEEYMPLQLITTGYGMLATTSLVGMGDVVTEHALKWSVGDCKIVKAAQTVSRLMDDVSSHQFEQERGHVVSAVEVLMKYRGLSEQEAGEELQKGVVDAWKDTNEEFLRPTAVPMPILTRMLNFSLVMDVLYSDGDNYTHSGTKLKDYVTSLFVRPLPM

RtTPS1 [3] = molecular target: T2, RtTPS1; assay: product formation by GC-MS
RtTPS3 [4] = molecular target: T3, RtTPS3; assay: product formation by GC-MS

| SMILES | product formation by GC-MS and chiral GC-FID (RtTPS2) | product formation by GC-MS and chiral GC-FID (RtTPS1 [1]) | product formation by GC-MS and chiral GC-FID (RtTPS3 [2]) | product formation by GC-MS and chiral GC-FID (RtTPS4) | product formation by GC-MS (RtTPS1 [3]) | product formation by GC-MS (RtTPS3 [4]) |
| --- | --- | --- | --- | --- | --- | --- |
| CC(C)=CCC/C(C)=C/COP(=O)(O)OP(=O)(O)O [GPP] | RtTPS1-4 produce mainly (+)-α-pinene and (+)-β-pinene | RtTPS1-4 produce mainly (+)-α-pinene and (+)-β-pinene | RtTPS1-4 produce mainly (+)-α-pinene and (+)-β-pinene | RtTPS1-4 produce mainly (+)-α-pinene and (+)-β-pinene | – | – |
| CC(C)=CCC/C(C)=C/CC/C(C)=C/COP(=O)(O)OP(=O)(O)O [FPP] | – | – | – | – | RtTPS1 and RtTPS3 are also active with FPP, producing β-caryophyllene | RtTPS1 and RtTPS3 are also active with FPP, producing β-caryophyllene |
